Drawing on patent US20240043448A1, “Small Molecule Inhibitors of KRAS G12C Mutant” (Merck Sharp & Dohme LLC, priority 2019, published 2024), this text covers IC50 for 14 compounds.

Each structure is given as a SMILES string. Where two headings read alike, the source gives them in different places.

Test [1] addresses Biotinylated KRAS G12C protein (Homo sapiens (Human), UniProt P01116, C118S/C51S/C80L/G12C). The test can be described thus: SOS-catalyzed nucleotide exchange assay (TR-FRET). Type of test: biochemical. To be noted: in vitro apparent potency; preincubation time of 60 minutes prior to addition of SOS. As for the experimental part:
The SOS-catalyzed nucleotide exchange assay utilizes a preformed complex of recombinant biotinylated KRAS protein containing G12C/C51S/C80L/C118S mutations (183 amino acids; biotin on K10; leader sequence which is an AviTag; referred to as SEQ ID NO: 1 or “Biotinylated KRAS G12C protein” hereafter), Bodipy-GDP, and Terbium-streptavidin. Compounds are added to this complex and then after incubation for 60 minutes, the mixture is treated with recombinant SOS protein and unlabeled GTP. Small molecule inhibitors stabilize the Bodipy-GDP complex whereas the untreated protein rapidly exchanges Bodipy-GDP for unlabeled GTP resulting in reduced TR-FRET signal.
Biotinylated KRAS G12C protein (SEQ ID NO: 1) is diluted to 2 μM in an EDTA buffer (20 mM HEPES, 150 mM sodium chloride, 10 mM EDTA, and 0.01% Tween) and incubated at room temperature for one hour. This mixture is then further diluted to 90 nM in an assay buffer (20 mM HEPES, 150 mM sodium chloride, 10 mM magnesium chloride, and 0.005% Tween) containing 15 nM of Terbium-Streptavidin (Invitrogen, catalog #PV3577) and 900 nM of Bodipy-GDP and incubated at room temperature for six hours. This solution is referred to as Biotinylated KRAS G12C mixture.
Each test compound (10 mM stock in DMSO) is diluted in DMSO to make a 10-point, 3-fold dilution series in a 384-well low dead volume microplate (Labcyte, catalog #LP-0200). Once titrations are made, 10 nL of the diluted compounds is acoustically dispensed into a 384-well plate (Corning, catalog #3820) using an Echo 550 (Labcyte).
Each well of the plate receives 3 μL Biotinylated KRAS G12C mixture that had been incubating for six hours and 3 μL of assay buffer using a BioRAPTR (Beckman Coulter) and is incubated at room temperature for 60 minutes. Each well then receives 3 μL of 240 nM recombinant human SOS protein and 9 mM GTP (Sigma, G8877) in assay buffer and is incubated at room temperature for 60 minutes.
The time-resolved fluorescence resonance energy transfer signal of the plate is measured on an Envision (PerkinElmer) plate reader: Excitation filter=340 nm; emission1=495 nm; emission2=520 nm; dichroic mirror=D400/D505; delay time=100 μs. The signal of each well is determined as the ratio of the emission at 520 nm to that at 495 nm. Percent effect of each well is determined after normalization to control wells containing DMSO (no effect) or a saturating concentration of inhibitor (max effect). The apparent effect as a function of compound concentration is fit to a four parameter logistic equation.

The test system of the next test is phospho-ERK. The test can be described thus: Cellular phospho-ERK assay. Type of test: cell-based. To be noted: NCI-H358 cells, 2 hour incubation, ratio of p-Erk vs total Erk, read-out: IC50 (nM) pERK (Cell). As for the experimental part:
NCI-H358 cells (ATCC® CRL-5807™) were cultured in T150 flask in growth medium (RPMI medium 1640-GlutaMAX™-I (ThermoFisher Scientific 61870) containing 10% fetal bovine serum (ThermoFisher Scientific 10091148)). The cells were harvested in growth medium after TrypLE (ThermoFisher scientific 12604021) digestion and were seeded in a 384-well collagen coated cell culture plate (Corning 356702) at a density of 15,000 cells/well, and incubated at 37° C., 5% CO2 overnight. The compound dose-response titrations were prepared and appropriate amounts of compounds were dispensed in a 384-well intermediate plate using an Echo 550 liquid handler. RPMI medium 1640-GlutaMAX™-I were added to the intermediate plate and transferred to 384-well cell culture plate, which was incubated at 37° C., 5% CO2 for 2 hours. After removal of medium from the plate, cells were lysed in lysis buffer from Alpha SureFire® Ultra™ Multiplex p-Erk and total Erk assay kit (PerkinElmer MPSU-PTERK) containing Halt™ Protease and Phosphotase inhibitor cocktail (ThermoFisher Scientific 78446) at room temperature with constant shaking at 300 rpm for 30 minutes. The cell lysates were then transferred to OptiPlate-384 plate (PerkinElmer 6005620) and the phosphorylation of Erk and total Erk levels were detected by Alpha SureFire Ultra Multiplex p-Erk kit (PerkinElmer MPSU-PTERK) following the manufacturer's protocol. Assay plates were read on an EnVision Multimode Plate Reader (PerkinElmer), and the ratio of p-Erk vs total Erk in each well was used as the final readout. Dose response curves were analyzed using a 4-parameter logistic model to calculate IC50 values using spotfire software.

Sequence of Biotinylated KRAS G12C protein (P01116 other isoform, or with tags, fused parts or gaps, stated change not applied): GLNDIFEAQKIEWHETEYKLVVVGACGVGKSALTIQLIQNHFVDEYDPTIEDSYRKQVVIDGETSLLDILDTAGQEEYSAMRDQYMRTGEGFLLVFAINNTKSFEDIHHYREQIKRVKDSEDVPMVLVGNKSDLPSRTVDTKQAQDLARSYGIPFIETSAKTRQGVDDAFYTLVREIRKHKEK

Take `C=CC(=O)N1C[C@H](C)N(c2nc(=O)n3c4nc(c(F)cc24)-c2c(F)cccc2OCC(F)(F)COc2ccnc(C(C)C)c2-3)C[C@H]1C` (single isomer, unassigned) [Example 13a]: the IC50 (usually the concentration that inhibits the measured activity by half) stood at 7.2 nM in test [1] and 27 nM in the test on phospho-ERK.
For the compound `C=CC(=O)N1CCN(c2nc(=O)n3c4nc(c(F)cc24)-c2c(F)cccc2OCCCc2ccnc(C(C)C)c2-3)[C@@H](CC)C1` [Example 98, 2-[(25)-2-ethyl-4-(prop-2-enoyl)piperazin-1-yl]-17,20-difluoro-6-(propan-2-yl)-11,12-dihydro-4H,10H-1,18-(ethanediylidene)pyrido[4,3-e]pyrimido[1,6-g][1,7,9] benzoxadiazacyclododecin-4-one], the IC50 in test [1] is 11 nM; in the test on phospho-ERK (Homo sapiens, NCI-H358, 2 h) it was 49 nM.
Consider `C=CC(=O)N1CC2CCC1CN2c1nc(=O)n2c3nc(c(F)cc13)-c1c(F)cccc1OCCCc1ccnc(C(C)C)c1-2` (stereo not shown) [Example 106, 17,20-difluoro-4-oxo-6-(propan-2-yl)-2-[5-(prop-2-enoyl)-2,5-diazabicyclo[2.2.2]octan-2-yl]-11,12-dihydro-4H,10H-1,18-ethenopyrido[4,3-e]pyrimido[1,6-g][1,7,9] benzoxadiazacyclododecin-4-one], for which the IC50 came out at 2550 nM in test [1] and 5620 nM in the test with phospho-ERK.
As for `C=CC(=O)N1C[C@H](C)N(c2nc(=O)n3c4nc(c(F)cc24)-c2c(F)ccc(F)c2OCCOc2ccnc(Cl)c2-3)C[C@H]1C` [Example 87, 6-chloro-2-[(2S,5R)-2,5-dimethyl-4-(prop-2-enoyl)piperazin-1-yl]-14,17,20-trifluoro-11,12-dihydro-4H-1,18-ethenopyrido[4,3-e]pyrimido[1,6-g][1,4,7,9] benzodioxadiazacyclododecin-4-one], the IC50 in test [1] is 461 nM; in the test with phospho-ERK (Homo sapiens, NCI-H358, 2 h), 3210 nM.
In the case of `C=CC(=O)N1C[C@H](C)N(c2nc(=O)n3c4nc(c(Cl)cc24)-c2c(F)cccc2OCC(F)(F)COc2ccnc(C(C)C)c2-3)C[C@H]1C` [Example 59, 21-chloro-2-[(2S,5R)-2,5-dimethyl-4-(prop-2-enoyl)piperazin-1-yl]-12,12,18-trifluoro-6-(propan-2-yl)-12,13-dihydro-4H,11H-1,19-(ethanediylidene)pyrido[4,3-f]pyrimido[1,6-h][1,5,8,10] benzodioxadiazacyclo-tridecin-4-one], the IC50 is 0.91 nM in test [1] and 6.1 nM with phospho-ERK (Homo sapiens, NCI-H358, 2 h).
In the case of `C=CC(=O)N1C[C@H](C)N(c2nc(=O)n3c4nc(c(Cl)cc24)-c2cc(F)cc(F)c2OCCCc2ccnc(C(C)C)c2-3)C[C@H]1C` [Example 82, 20-chloro-2-[(2S,5R)-2,5-dimethyl-4-(prop-2-enoyl)piperazin-1-yl]-14,16-difluoro-6-(propan-2-yl)-11,12-dihydro-4H,10H-1,18-ethenopyrido[4,3-e]pyrimido[1,6-g][1,7,9]benzoxadiazacyclododecin-4-one], the IC50 in test [1] worked out at 5.9 nM; in the test with phospho-ERK (Homo sapiens, NCI-H358, 2 h) it was 36 nM.
For `C=CC(=O)N1CCN(c2nc(=O)n3c4nc(c(F)cc24)-c2c(ccc(F)c2F)OCC(F)(F)CCc2ccnc(C(C)C)c2-3)CC1` [Example 65, 12,12,17,18,21-pentafluoro-6-(propan-2-yl)-2-[4-(prop-2-enoyl)piperazin-1-yl]-10,11,12,13-tetrahydro-4H-1,19-(ethanediylidene)pyrido[4,3-f]pyrimido[1,6-h][1,8,10] benzoxadiazacyclotri-decin-4-one], the IC50 in test [1] came out at 2.6 nM; in the test with phospho-ERK (Homo sapiens, NCI-H358, 2 h), 15 nM.
Turning to `C=CC(=O)N1CC(C)N(c2nc(=O)n3c4nc(c(F)cc24)-c2c(F)ccc(F)c2OCC(F)(F)CCc2ccnc(C(C)C)c2-3)CC1C` [Example 55, (5aRa,18aRa)-2-[(2S,5R)-2,5-dimethyl-4-(prop-2-enoyl)piperazin-1-yl]-12,12,15,18,21-pentafluoro-6-(propan-2-yl)-10,11,12,13-tetrahydro-4H-1,19-(ethanediylidene)pyrido[4,3-f]pyrimido[1,6-h][1,8,10] benzoxadiazacyclotri-decin-4-one], the concentration for half-maximal inhibition (IC50) in test [1] came to 2.7 nM; in the test on phospho-ERK (Homo sapiens, NCI-H358, 2 h), 29 nM.
The matching figures for `C=C(F)C(=O)N1CCN(c2nc(=O)n3c4nc(c(F)cc24)-c2c(F)cccc2OCCCCc2ccnc(C(C)C)c2-3)[C@@H](C)C1` [Example 85, 18,21-difluoro-2-[(2S)-4-(2-fluoroprop-2-enoyl)-2-methylpiperazin-1-yl]-6-(propan-2-yl)-10,11,12,13-tetrahydro-4H-1,19-ethenopyrido[4,3-f]pyrimido[1,6-h][1,8,10]benzoxadiazacyclotridecin-4-one]: 47 nM and 198 nM.
`C=CC(=O)N1CC(C)N(c2nc(=O)n3c4nc(c(Cl)cc24)-c2c(F)ccc(F)c2OCCOc2ccnc(C(C)C)c2-3)CC1C` [Example 50, (5aSa,17aRa)-20-chloro-2-[(2S,5R)-2,5-dimethyl-4-(prop-2-enoyl)piperazin-1-yl]-14,17-difluoro-6-(propan-2-yl)-11,12-dihydro-4H-1,18-(ethanediylidene)pyrido[4,3-e]pyrimido[1,6-g][1,4,7,9]benzodioxadiazacyclododecin-4-one]: the IC50 turned out to be 1.1 nM in test [1] and 4.4 nM in the test with phospho-ERK.
Turning to `C=CC(=O)N1CCN(c2nc(=O)n3c4nc(c(F)cc24)-c2c(ccc(F)c2F)OCC(F)(F)CCc2ccnc(C(C)C)c2-3)C[C@H]1C` [Example 66, 12,12,17,18,21-pentafluoro-2-[(3R)-3-methyl-4-(prop-2-enoyl)piperazin-1-yl]-6-(propan-2-yl)-10,11,12,13-tetrahydro-4H-1,19-(ethanediylidene) pyrido[4,3-f]pyrimido[1,6-h] [1,8,10]benzoxadiazacyclo-tridecin-4-one], the IC50 in test [1] worked out at 5.3 nM; in the test with phospho-ERK (Homo sapiens, NCI-H358, 2 h) it was 30 nM.
On the same counts, the results for `C=CC(=O)N1CCN(c2nc(=O)n3c4nc(c(F)cc24)-c2ccnn2CCCCc2ccnc(C(C)C)c2-3)[C@@H](C)C1` [Example 5, 20-fluoro-2-[(2S)-2-methyl-4-(prop-2-enoyl)piperazin-1-yl]-6-(propan-2-yl)-10,11,12,13-tetrahydro-4H-1,18-(ethanediylidene)-pyrazolo[5,1-e]pyrido-[4,3-k]pyrimido[1,6-a]-[1,3,6]triazacyclododecin-4-one] are 898 nM and 4440 nM.
The matching figures for `C=CC(=O)N1C[C@@H]2C[C@H]1CN2c1nc(=O)n2c3nc(c(F)cc13)-c1c(F)cccc1OCCCCc1ccnc(C(C)C)c1-2` [Example 104, 18,21-difluoro-6-(propan-2-yl)-2-[(1S,4S)-5-(prop-2-enoyl)-2,5-diazabicyclo[2.2.1]heptan-2-yl]-10,11,12,13-tetrahydro-4H-1,19-ethenopyrido[4,3-f]pyrimido[1,6-h][1,8,10]benzoxadiazacyclotridecin-4-one]: 1470 nM and 8850 nM.
For the compound `C=CC(=O)N1CCN(c2nc(=O)n3c4nc(c(F)cc24)-c2c(F)cccc2CCCOc2ccnc(C(C)C)c2-3)[C@@H](C)C1` (single isomer, unassigned) [Example 20b], the concentration for half-maximal inhibition (IC50) in test [1] amounted to 1380 nM; in the test on phospho-ERK, 4760 nM.
